According to patent US7754692B2, “Arginyl-glutamine dipeptide for treatment of pathological vascular proliferation” (University of Florida Research Foundation, Inc., priority 2003, dated 2010):
Peptide text beside a SMILES is read from it.

Columns and labels:
[1] = system: pre-retinal neovascularization; experiment: Neonatal mouse hyperoxia model of retinopathy of prematurity, counting pre-retinal neovascularization on stained sections; type: in vivo, mice
Description: Neonatal mice were exposed to a period of hyperoxia to induce retinal angiogenesis that mimics retinopathy of prematurity. An Arginyl-glutamine dipeptide was administered intraperitoneally twice daily during the period when neovascularization occurs in this model, days 12 through 17.
On day 17 the animals are sacrificed and degree of angiogenesis was quantified by counting pre-retinal neovascularization on stained sections from treated and untreated animals.

retinal cell culture = experiment: Retinal cell culture model, transepithelial resistance (TER); type: cell-based
[2] = system: vascular endothelial growth factor (VEGF); experiment: Retinal cell culture model, vascular endothelial growth factor (VEGF); type: cell-based

N=C(N)NCCC[C@H](N)C(=O)N[C@@H](CCC(N)=O)C(=O)O [argininyl-glutamine, arginyl-glutamine] (H-Arg-Gln-OH)
reduction in preretinal neovascularization ([1]; neonatal mice after hyperoxia, intraperitoneally twice daily days 12 through 17, read on day 17, combined data from two experiments (FIG. 1)): 80%
nuclei (associated with retinopathy) compared to the vehicle ([1]; repeat experiment with different doses of the dipeptide after oxygen stress challenge, FIG. 2): clear decrease
transepithelial resistance (TER) (retinal cell culture): increased
vascular endothelial growth factor (VEGF) [2]: decreased
